Assay results: US8119116B2, “Therapeutics for cancer using 3-bromopyruvate and other selective inhibitors of ATP production” (John Hopkins University School of Medicine, priority 2001, dated 2012)
pIC50: −log10 of the molar value.

What was measured:
VX2 tumor slices = test: Glycolysis (lactic acid formation) in VX2 tumor slices; format: cell-based, rabbit; settings: for inhibition of VX2 tumor glycolysis in the limited screen: 6 mM agent, 6 mM glucose, 37° C., 5 h
Method: Glycolysis was assayed by monitoring the formation of lactic acid following the addition of glucose to a medium containing VX2 tumor slices. Specifically, freshly excised tumors were washed 3 times at 4° C. in 20 ml Chance Hess Medium containing 6.2 mM KCl, 154 mM NaCl, and 11 mM NaPi, pH 7.4. Slices, 1 g each, were then prior incubated for 30 min in a Lab-Line incubator-shaker at 37° C. in 2 ml of the same medium while shaking at 50 rpm. Glucose was then added to give a final concentration of 6 mM, after which the incubation/shaking process was continued with 0.2 ml samples being removed every 30 min for up to 2 h. These samples were subjected to centrifugation at 14,000 rpm in an Eppendorf Centrifuge (Model 5415C). Then, aliquots of the supernatant, 0.01 ml, were removed from each sample, diluted with 0.03 ml of water and subjected to lactic acid determination using the kit supplied by Sigma. The latter contains, in addition to lactic dehydrogenase and NAD+, hydrazine, and glycine buffer, pH 9.2. The mixture was incubated for 30 min at 25° C. after which the absorbance due to formation of NADH was determined at 340 nm using a Gilford Model 260 spectrophotometer. To assess the elevation of the glycolytic activity of the VX2 tumor over that of liver tissue, parallel studies were always carried out in an identical manner with 1 g liver slices derived from the host liver. Finally, in those cases where agents were tested for their capacity to inhibit glycolysis, these were introduced into the system at the prior incubation step with all subsequent steps being run in parallel with those described above for the VX2 tumor or liver alone.
The screen included the following 9 compounds: 2-deoxyglucose (2DOG), 2-fluoro-2-deoxyglucose, 6-fluoro-6-deoxyglucose, 3-O-methyl glucose, 5-thio-D-glucose-6-phosphate, L-glucose, D-xylose, D-lyxose, and 3-bromopyruvic acid (3BrPA). The screen was conducted by incubating VX2 tumor slices in a medium containing 6 mM glucose with 6 mM of each of these agents at 37° C. for 5 h. The use of 6 mM glucose in the medium was used to mimic the maximal amount of glucose that might be in the blood in a real in vivo situation.
With the above preliminary data at hand, only two of the 9 compounds screened were studied in more detail. One was 2DOG because under certain conditions it is known to inhibit glycolysis when it is phosphorylated by hexokinase to 2DOG-6-P which cannot be further metabolized. The other compound tested in more detail was 3BrPA because of its effectiveness as a glycolytic inhibitor in the preliminary screen.

AS-30D hepatoma cells = test: Hepatoma cell viability by trypan blue; format: cell-based, rat; settings: 20 mM, 12 h
Method: AS-30D hepatoma cells grown in the peritoneal cavity of Sprague Dawley female rats (see Materials) were adapted to grow in tissue culture in Dulbecco's modified Eagle's medium containing 10% fetal bovine serum. Cells were maintained at 37° C. in a humidified atmosphere containing 5% CO2, and counted in a Neubauer chamber after trypan blue dye addition (cell/dye volume=1/1) by visualization under a Nikon inverted microscope.
The studies described above using the VX2 tumor model for liver cancer predict that 2DOG and 3BrPA may have the capacity to kill hepatoma cells expressing the high glycolytic/high hexokinase phenotype. […] Cell killing was assessed in these experiments by counting those cells in which trypan blue had entered.

| SMILES | inhibition of VX2 tumor glycolysis in the limited screen (VX2 tumor slices) | other results |
| --- | --- | --- |
| O=C[C@H](O)[C@@H](O)[C@H](O)[C@H](S)COP(=O)(O)O [5-thio-D-glucose-6-phosphate] | ineffective |  |
| O=C[C@H](O)[C@@H](O)[C@H](O)CO [D-xylose] | ineffective |  |
| O=C[C@H](F)[C@@H](O)[C@H](O)[C@H](O)CO [2-fluoro-2-deoxyglucose] | ineffective |  |
| O=CC[C@@H](O)[C@H](O)[C@H](O)CO [2DOG, 2-deoxyglucose] | ineffective | pIC50 (VX2 tumor slices; Oryctolagus cuniculus, 0.5 h, VX2 tumor slices, agent prior incubated 30 min at 37° C., read-out: half maximal inhibition of glycolysis): ~1.82; concentration for maximal or complete inhibition of glycolysis (VX2 tumor slices; VX2 tumor slices, agent prior incubated 30 min at 37° C.): ~50 mM; maximal inhibition of glycolysis (VX2 tumor slices; VX2 tumor slices, at almost 50 mM): 70%; cells killed (trypan blue uptake) (AS-30D hepatoma cells): about 80% |
| O=C[C@@H](O)[C@H](O)[C@@H](O)[C@@H](O)CO [L-glucose] | ineffective |  |
| O=C[C@@H](O)[C@@H](O)[C@H](O)CO [D-lyxose] | ineffective |  |
| CO[C@@H]([C@H](O)[C@H](O)CO)[C@@H](O)C=O [3-O-methyl glucose] | ineffective |  |
| O=C[C@H](O)[C@@H](O)[C@H](O)[C@H](O)CF [6-fluoro-6-deoxyglucose] | ineffective |  |
